Reference: publication PMC9969396, “Development of Human Carbonic Anhydrase II Heterobifunctional Degraders” (Journal of Medicinal Chemistry, 2023)
Like-named read-outs stand apart in the source and are kept apart here.

Legend:
hCAII [1] = biological target: T1, hCAII (Homo sapiens, UniProt P00918); test: colorimetric p-nitrophenyl acetate hCAII activity assay; format: biochemical
T1 construct: made in house; host or cells: Escherichia coli BL21(DE3), pACA plasmid (gift from Carol A. Fierke)
Description: To verify that the p-sulfamoyl benzamide MBP retained its binding following ligation with the linker and bulky recruiting group moieties, the inhibition activity of each degrader candidate was determined using a colorimetric p-nitrophenol acetate hCAII activity assay.[46] In short, recombinantly expressed hCAII was preincubated with the degrader candidate before the addition of p-nitrophenyl acetate, a substrate that upon enzymatic cleavage leads to acetic acid and p-nitrophenolate.
Recombinant hCAII was expressed and purified according to the protocol reported in the Supporting Information. […] Wells were prepared to a final volume of 100 μL per well, including buffer (50 mM HEPES, pH 8.0), enzyme (hCAII, 40 nM), inhibitor (varying concentrations), and substrate (p-nitrophenyl acetate, 500 μM). Inhibitors and protein were preincubated for 10 min at rt, and the substrate was added to the reaction mixture immediately before reading. […] The rate of absorbance for each replicate was corrected for substrate autohydrolysis and inherent inhibitor absorbance by subtracting the rate of absorbance from a blank sample lacking enzyme but containing the inhibitor and substrate. Samples lacking inhibitor but containing enzyme and substrate were used to define 100% hCAII activity. Samples lacking inhibitor and enzyme were used to define 0% hCAII activity. IC50 was determined using non-linear regression with a variable slope on the GraphPad Prism software.

hCAII [2] = biological target: T2, hCAII (Homo sapiens, UniProt P00918+Q96SW2); test: time-course of hCAII abundance in HEK293 cells, western blot; format: cell-based; details: 50 nM
T2 construct: HEK293 cells, a line known to abundantly express hCAII; endogenous in cells; host or cells: HEK293
Description: To determine the efficiency of 11, hCAII abundance was evaluated in HEK293 cells that were dosed with 50 nM of 11 over 48 h. Depletion of hCAII relative to vehicle (DMSO) began within 2 h and reached a maximal effect by 6 h (Figure 5c). Sustained degradation was also observed for the entirety of the 48 h tested. Based on the results of this time-course dosing experiment, it appears that 11 begins degrading hCAII quickly after exposure to the cell and maintains prolonged activity after initial dosing.
After reaching 90% confluency, HEK293 cells were trypsinized, counted, and plated with 2 mL media at 2 × 10^6 cells per well on a tissue-culture-treated, 6-well plate. […] Lysates were thawed on ice, and the total protein concentration was measured using a Pierce bicinchoninic acid protein assay (Thermo Fisher Scientific, 23225). […] The immunoblot was then analyzed using the ImageJ software as an 8-bit image. The brightness and contrast of the image were adjusted, and the integrated density was calculated for each protein band using the gel lane analysis tool. Relative hCAII expression was calculated by normalizing the hCAII/β-actin ratio in compound-treated wells to the hCAII/β-actin ratio in vehicle (DMSO)-treated wells and indicated as “hCAII Abundance (% DMSO)”.

hCAII [3] = biological target: T2, hCAII; test: nine-point dose response hCAII degradation assay in HEK293 cells, western blot; format: cell-based
Description: Three biological replicates of HEK293 cells were dosed in parallel with 4 or 5 at concentrations ranging from 5 pM to 15 μM for 24 h prior to lysis. […] This phenomenon can be attributed to the binary complexes of degrader-POI and degrader-E3 ligase outcompeting the POI-degrader-E3 ligase ternary complex at high degrader concentrations. […] The half-maximal degradation (DC50 value reported as a 95% confidence interval) and maximum percentage of degradation (DMax) of each active degrader were determined using a least squares sigmoidal fitting of the degradation activity of dosing concentrations below the observable “hook effect” (Figure 2B).
Figure 3 Dose-dependent degradation of hCAII by 4 and 5. (A) Western blot images of HEK293 cells dosed for 24 h with degrader 4 (left) or 5 (right) at concentrations of 5 pM to 15 μM. (B) Dose response curves of hCAII abundance as a percent of DMSO vehicle for 4 (left) or 5 (right). Band intensities of blots from three biological replicates were quantified using ImageJ software (Experimental Section). Data were normalized to a vehicle-treated (DMSO) group and plotted as a sigmoidal curve. Nonlinear fitting of log([inhibitor]) vs response (three parameters) was generated for 4 with R^2 = 0.955 and 5 with R^2 = 0.855 in GraphPad Prism. Points marked with an asterisk indicate only two biological replicates. In all other cases, error bars represent the standard deviation of triplicate experiments. Full images of the western blots are provided in the Supporting Information (Figures S1 and S3).
Given the inactivity of 1–3 and increased potency of 4 over 5, a 12-atom linker appeared to be a preferred length for favorable ternary complex formation in the heterobifunctional degraders tested. To further examine the role of linker length and composition, we explored hydrocarbon linkers for their ability to improve degrader lipophilicity and membrane permeability without impacting the favorable ternary complex formation. […] Western blot analysis and quantification of three biological replicates identified the degradation of hCAII at concentrations of 11 as low as 50 pM and achieved near-complete hCAII degradation at concentrations of 5 nM (Figures 5A and S3).
After reaching 90% confluency, HEK293 cells were trypsinized, counted, and plated with 2 mL media at 2 × 10^6 cells per well on a tissue-culture-treated, 6-well plate. At the appropriate number of hours before reaching ∼90% confluency, cells were treated with DMSO solutions of the appropriate compounds (final concentration 0.5% DMSO per well). Upon reaching 90% confluency, typically 72 h, culture media were removed and the cells were washed with cold Dulbecco’s phosphate-buffered saline (DPBS). Lysis buffer, composed of cell lysis buffer (Cell Signaling Technology, 9803), protease inhibitor cocktail (Cell Signaling Technology, 5872), and 1 mM phenylmethylsulfonylfluoride, was added to each well, and the plates were rocked at 4 °C for 20 min. Cells were then scraped from the bottom of the plates, and the supernatant was collected after spinning down at 14,000g at 4 °C for 10 min and frozen at −80 °C. Lysates were thawed on ice, and the total protein concentration was measured using a Pierce bicinchoninic acid protein assay (Thermo Fisher Scientific, 23225). […] Following heating at 98 °C for 5 min and cooling to room temperature, the prepared samples were electrophoretically separated on a 4–20% TGX gel (Bio-Rad, 4568095) and transferred to a PVDF membrane (Amersham Hybond P 0.45 μm, 106000019) in a tris-glycine transfer buffer (Thermo Fisher Scientific, LC3675) with a 20% final MeOH concentration. The membrane was rocked at 4 °C with fluorescent blocking buffer (Thermo Fisher Scientific, 37565) for 1 h and then incubated with primary antibodies (hCAII Rabbit mAb, 1:1000 and β-actin Rabbit pAb, 1:2000 in fluorescent blocking buffer) at 4 °C overnight. […]

hCAII [4] = biological target: T2, hCAII; test: competition / mechanistic experiments on hCAII degradation in HEK293 cells, western blot; format: cell-based; details: then 50 nM for 6 h
Description: Competition experiments were performed to verify that the degradation activity of 11 was the result of a PROTAC-style mechanism requiring concurrent degrader engagement with both hCAII and CRBN.
After reaching 90% confluency, HEK293 cells were trypsinized, counted, and plated with 2 mL media at 2 × 10^6 cells per well on a tissue-culture-treated, 6-well plate. At the appropriate number of hours before reaching ∼90% confluency, cells were treated with DMSO solutions of the appropriate compounds (final concentration 0.5% DMSO per well). Upon reaching 90% confluency, typically 72 h, culture media were removed and the cells were washed with cold Dulbecco’s phosphate-buffered saline (DPBS). Lysis buffer, composed of cell lysis buffer (Cell Signaling Technology, 9803), protease inhibitor cocktail (Cell Signaling Technology, 5872), and 1 mM phenylmethylsulfonylfluoride, was added to each well, and the plates were rocked at 4 °C for 20 min. Cells were then scraped from the bottom of the plates, and the supernatant was collected after spinning down at 14,000g at 4 °C for 10 min and frozen at −80 °C. Lysates were thawed on ice, and the total protein concentration was measured using a Pierce bicinchoninic acid protein assay (Thermo Fisher Scientific, 23225). […] Following heating at 98 °C for 5 min and cooling to room temperature, the prepared samples were electrophoretically separated on a 4–20% TGX gel (Bio-Rad, 4568095) and transferred to a PVDF membrane (Amersham Hybond P 0.45 μm, 106000019) in a tris-glycine transfer buffer (Thermo Fisher Scientific, LC3675) with a 20% final MeOH concentration. […] The immunoblot was then analyzed using the ImageJ software as an 8-bit image. The brightness and contrast of the image were adjusted, and the integrated density was calculated for each protein band using the gel lane analysis tool. Relative hCAII expression was calculated by normalizing the hCAII/β-actin ratio in compound-treated wells to the hCAII/β-actin ratio in vehicle (DMSO)-treated wells and indicated as “hCAII Abundance (% DMSO)”.

[5] = SMILES csv supplement, read-out: hCAII IC50
[6] = recombinant hCAII 40 nM, p-nitrophenyl acetate 500 μM, pH 8.0, 95% confidence interval, read-out: IC50 (nM), hCAII inhibition activity (Table S1)
[7] = enzyme concentration of 40 nM, read-out: IC50, below the detection limit of the assay

Row | IC50 (hCAII [1]; [5]) [nM] | IC50 (hCAII [1]; [6]) [nM] | Compound | other results
1 | 48 ± 5 | 48 ± 5 | NS(=O)(=O)c1ccc(C(=O)NCCOCCNc2cccc3c2C(=O)N(C2CCC(=O)NC2=O)C3=O)cc1 (stereo not shown) [Compound 1, N-(2-(2-((2-(2,6-Dioxopiperidin-3-yl)-1,3-dioxoisoindolin-4-yl)amino)ethoxy)ethyl)-4-sulfamoylbenzamide] | –
2 | 41 ± 5 | 41 ± 5 | NS(=O)(=O)c1ccc(C(=O)NCCOCCOCCOCCNc2cccc3c2C(=O)N(C2CCC(=O)NC2=O)C3=O)cc1 (stereo not shown) [Compound 3, N-(2-(2-(2-(2-((2-(2,6-Dioxopiperidin-3-yl)-1,3-dioxoisoindolin-4-yl)amino)ethoxy)ethoxy)ethoxy)ethyl)-4-sulfamoylbenzamide] | –
3 | – | 57 ± 5 | NS(=O)(=O)c1ccc(C(=O)NCCOCCNC(=O)CC23CC4CC(CC(C4)C2)C3)cc1 [Compound 6, N-(2-(2-(2-((3r,5r,7r)-Adamantan-1-yl)acetamido)ethoxy)ethyl)-4-sulfamoylbenzamide] | –
4 | – | ≤ 20 | NS(=O)(=O)c1ccc(C(=O)NCCOCCOCCNC(=O)CC23CC4CC(CC(C4)C2)C3)cc1 [Compound 7, N-(2-(2-(2-(2-((3r,5r,7r)-Adamantan-1-yl)acetamido)ethoxy)ethoxy)ethyl)-4-sulfamoylbenzamide] | IC50 (hCAII [1]; [7]): ≤ 20 nM
5 | 28 ± 4 | 28 ± 4 | NS(=O)(=O)c1ccc(C(=O)NCCOCCOCCOCCNC(=O)CC23CC4CC(CC(C4)C2)C3)cc1 [Compound 8, N-(1-((3r,5r,7r)-Adamantan-1-yl)-2-oxo-6,9,12-trioxa-3-azatetradecan-14-yl)-4-sulfamoylbenzamide] | –
6 | – | ≤ 20 | NS(=O)(=O)c1ccc(C(=O)NCCCOCCOCCOCCCNC(=O)CC23CC4CC(CC(C4)C2)C3)cc1 [Compound 10, N-(1-((3r,5r,7r)-Adamantan-1-yl)-2-oxo-7,10,13-trioxa-3-azahexadecan-16-yl)-4-sulfamoylbenzamide] | IC50 (hCAII [1]; [7]): ≤ 20 nM
7 | – | – | NS(=O)(=O)c1ccc(C(=O)NCCCCCCCCCCCCNc2cccc3c2C(=O)N(C2CCC(=O)NC2=O)C3=O)cc1 (stereo not shown) [Compound 11, N-(12-((2-(2,6-Dioxopiperidin-3-yl)-1,3-dioxoisoindolin-4-yl)amino)dodecyl)-4-sulfamoylbenzamide] | time to maximal effect (hCAII [2]): ≤ 6 h; Dmax (hCAII [3]; HEK293, HEK293 cells, 24 h, read-out: DMax (maximum percentage of degradation)): 100%; concentration achieving near-complete hCAII degradation (hCAII [3]; HEK293 cells, 24 h): 5 nM; degradation of hCAII at concentrations as low as (hCAII [3]; HEK293 cells, 24 h): 50 pM; DC50 (hCAII [3]; HEK293 cells, 24 h, 5 pM to 15 μM, 95% confidence interval, read-out: DC50 (half-maximal degradation)): 0.5 ± 0.3 nM; hook effect (attenuation of target degradation at high concentration) (hCAII [3]; HEK293 cells, 24 h, doses up to 15 μM): no appreciable “hook effect”; fold increase in activity over 4 (hCAII [3]; from DC50 values): 10 fold; hCAII degradation after MG132 pre-treatment (hCAII [4]; HEK293, 1 μM MG-132 for 1 h): complete loss of hCAII degradation activity; hCAII degradation after acetazolamide pre-treatment (hCAII [4]; HEK293, 1 h preincubation with 5 μM acetazolamide): no degradation of hCAII; hCAII degradation after lenalidomide pre-treatment (hCAII [4]; HEK293, 1 h preincubation with 5 μM lenalidomide): no degradation of hCAII
8 | 58 ± 8 | 58 ± 8 | COCCNC(=O)c1ccc(S(N)(=O)=O)cc1 [Compound 13, N-(2-Methoxyethyl)-4-sulfamoylbenzamide] | –

Row | Compound | IC50 (hCAII [1]; [5]) [nM] | IC50 (hCAII [1]; [6]) [nM] | other results
9 | NS(=O)(=O)c1ccc(C(=O)NCCCOCCCCOCCCNC(=O)CC23CC4CC(CC(C4)C2)C3)cc1 [Compound 9, N-(3-(4-(3-(2-((3r,5r,7r)-Adamantan-1-yl)acetamido)propoxy)butoxy)propyl)-4-sulfamoylbenzamide] | 35 ± 5 | 35 ± 5 | –
